For one test, the system named is CAL-1 pDCs. The test is described as follows: ELISA of R848-induced responses in CAL-1 pDCs. The test is classed as cell-based, human. The protocol:
CAL-1, THP1 or human primary cells were incubated with dTASL1 and other identified compounds (or the corresponding volume of DMSO vehicle) for 24 h or 48 h at the indicated concentration and subsequently stimulated with R848 (5 μg/ml) for the indicated time. Supernatant or cells were recovered for ELISA, SDS-PAGE or microscopy-based analysis.
All enzyme-linked immunosorbent assay (ELISA) experiments were performed using diluted cell supernatant according to manufacturer's instructions. ELISA kits for human IL-6 (no. 88-7066-88), human CCL2 (no. 88-7399-88) and human TNF (no. 88-7346-77) were from Invitrogen. ELISA kit for human interferon beta […] was from PBL Assay Science (41410-1).
Based on potency and kinetics, the compound C5 was selected for further characterization (FIG. 2E). C5 is an elongated molecule comprised of an aromatic 2-(4-ethoxyphenyl)-quinoline moiety followed by an amide bond and an aliphatic 2-methyl-1-propylpiperidine (FIG. 2F). To validate the scaffold and explore the chemical space at the aliphatic end of the compound, five analogues and an independently synthesized batch of C5 were obtained. […] Therefore the C5 compound was selected, which was named dTASL1 as its activity leads to TASL degradation, to assess effects on TLR7/8-induced signaling and responses.

The target in the next test is T1, SLC15A4 (Homo sapiens, UniProt Q8N697).
T1 construct: transient TASL-V5 N-terminal fragments 1-94 and 1-193 (C-terminal V5) as partner
T1 sequence (Q8N697 whole entry, the tested form may be a part): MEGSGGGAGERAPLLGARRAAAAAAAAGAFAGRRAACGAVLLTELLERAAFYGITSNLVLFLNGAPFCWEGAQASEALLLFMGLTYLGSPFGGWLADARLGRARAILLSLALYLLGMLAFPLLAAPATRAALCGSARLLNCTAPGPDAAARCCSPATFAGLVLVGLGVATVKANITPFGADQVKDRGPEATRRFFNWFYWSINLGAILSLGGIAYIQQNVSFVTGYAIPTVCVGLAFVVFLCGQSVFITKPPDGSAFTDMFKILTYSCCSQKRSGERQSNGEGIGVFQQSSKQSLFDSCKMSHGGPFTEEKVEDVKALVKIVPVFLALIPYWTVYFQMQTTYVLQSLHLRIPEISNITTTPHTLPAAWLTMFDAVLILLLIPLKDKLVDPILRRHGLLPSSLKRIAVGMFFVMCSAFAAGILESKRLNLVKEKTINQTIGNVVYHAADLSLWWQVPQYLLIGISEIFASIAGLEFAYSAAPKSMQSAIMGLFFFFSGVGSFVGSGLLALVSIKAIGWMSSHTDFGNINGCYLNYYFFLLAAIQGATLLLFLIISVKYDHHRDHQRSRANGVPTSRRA
The test is described as follows: Competition assay with V5-tagged N-terminal TASL fragments (V5 immunofluorescence). The test is classed as cell-based. As to conditions: TASL-V5 fragments of first 94 and 193 amino acids; 10 mM dTASL1, 24 h. The protocol: For staining of fixed cells, 12 k cells/well were seeded in tissue culture-treated PhenoPlate 96-well plates (PerkinElmer) and incubated over-night. Cells were transfected with TASL-V5 fragments the next day and subsequently TASL-V5 expression was induced by addition of 1 μg/ml doxycycline and […] dTASL1 or an equivalent volume of DMSO respectively. Compound and doxycycline were added at the same time, to allow dTASL1 to occupy SLC15A4 binding sites in advance of TASL binding. Cells were fixed after 24 h of incubation for 10 min with 4% formaldehyde in PBS and permeabilized and blocked with 0.2% Triton X-100 (Sigma) and 5% FBS in PBS for 1 h. Cells were stained overnight at 4 °C with a mouse anti V5 primary antibody (Invitrogen) in blocking solution. Cells were washed 3 time in PBS and stained for 1.5 h with fluorescently labelled goat anti mouse Alexa-568 (Invitrogen) secondary antibody. […]
Encouraged by the fact that the chemical entity of the present invention was showing the desired behavior and specificity profile, it became important to better clarify the molecular basis of this uncommon mechanism of action, i.e interference with a highly specific protein interaction leading to degradation of a single complex component. The effect of dTASL1 on complex assembly was first monitored. […]

Another test concerns NF-κB p65. The test can be described thus: NF-κB p65 nuclear translocation in CD19^+ B cells of PBMCs (confocal microscopy). The settings on record: primary B cells, dTASL1 10 µM 24 h, R848 (5 μg/ml) 3 h, n=7. The test is classed as cell-based, human. As for the experimental part:
(§1) PBMCs were treated for 24 h with DMSO or dTASL1 (10 µM) and thereafter stimulated with 5 μg/ml R848 (Invivogen) for three hours or left unstimulated. Cells were harvested and stained for 30 minutes with PE-conjugated anti-CD19 antibodies (BioLegend, #302254, 1:200 in PBS/2% FBS) on ice and fixed with 4% formaldehyde in PBS for 15 minutes at RT. Permeabilization and staining for NF-κB p65 and IRF5 and counterstaining was performed as for CAL-1 and cells were seeded at a concentration of 3×10^4 cells/well onto 384-well imaging plates. Images were acquired on a PerkinElmer Opera Phenix HCS spinning disc confocal microscope and analyzed as described above with the additional identification of B cells based on CD19 membrane staining intensity. This protocol also applies to the cells obtained from SLE patients.
(§2) Given that all evidence obtained seems to confirm the mechanistic precision of this chemical agent, any further consideration of assessing the therapeutic potential required evidence for activity in human primary cells relevant for SLE pathophysiology. The effect of dTASL1 in human peripheral blood mononuclear cells (PBMCs) was assessed. […] It has been previously shown that the SLC15A4-TASL module was required for TNF production in primary human monocytes. […] The impact of dTASL1 on TLR7/8 responses by directly monitoring IRF5 by confocal microscopy in B cells was assessed.

Test [1] has as its system TNF production in human peripheral blood mononuclear cells (PBMCs). The test is described as follows: TNF ELISA, R848-stimulated PBMCs. The test is classed as cell-based. As to conditions: bulk PBMCs, dTASL1 10 µM 24 h, R848 (5 μg/ml) 16 h, n=8. The source says:
HEK293T cells and THP1 cells were purchased from ATCC, THP1 DUAL/ISRE reporter cell lines from Invivogen. CAL-1 cells were provided by T. Maeda (Nagasaki University). Cell lines—except for CAL-1—were authenticated by short tandem repeat profiling and regularly tested for mycoplasma contamination. Human primary PBMCs were isolated from the blood of anonymous healthy donors as well as SLE patients included in our biobank approved by the ethics committee of the Medical University of Vienna (EK2071/2020 and EK1075/2021). CD14^+ monocytes were purified by magnetic-activated cell sorting (Miltenyi Biotec, #130-050-201) according to the manufacturers protocol. Purity of CD14^+ cells ranged between 80.8% and 94.2% as determined by flow cytometry analysis. […]
Given that all evidence obtained seems to confirm the mechanistic precision of this chemical agent, any further consideration of assessing the therapeutic potential required evidence for activity in human primary cells relevant for SLE pathophysiology. The effect of dTASL1 in human peripheral blood mononuclear cells (PBMCs) was assessed. […] The impact of dTASL1 on TLR7/8 responses by directly monitoring IRF5 by confocal microscopy in B cells was assessed.

Another test concerns IRF5. The test is described as follows: IRF5 nuclear translocation in CD19^+ B cells of PBMCs (confocal microscopy). The test is classed as cell-based, human. As to conditions: primary B cells, dTASL1 10 µM 24 h, R848 (5 μg/ml) 3 h, n=7. The protocol: as §1, §2

As for `CCOc1ccc(-c2cc(C(=O)NCCCN3CCCCC3C)c3ccccc3n2)cc1` (stereo not drawn) [dTASL1, 2-(4-ethoxyphenyl)-N-(3-(2-methylpiperidin-1-yl)propyl) quinoline-4-carboxamide], in the test on CAL-1 pDCs (CAL-1 pDCs, 24 h pre-treatment, R848 (5 μg/ml) 16-24 h), the R848-induced responses entry was “strongly suppressed R848-induced responses”. Besides, in the test with CAL-1 pDCs (human monocytic and pDC cell lines), the “downstream type I IFN production” value is “specifically impairs TLR7/8-induced IRF5 activation and downstream type I IFN production”. The “SLC15A4-localized V5 signal” value on SLC15A4 is on record as “reduce SLC15A4-localized V5 signal for both short TASL portions”. The “activation of NF-κB p65” value with NF-κB p65 is on record as “without affecting the activation of NF-κB p65”. Moreover, the TNF production result in test [1] is on record as “potently impaired TNF”. Moreover, the IRF5 nuclear translocation result with IRF5 is given as “significantly reduced IRF5 nuclear translocation”.

These data come from patent US20260364088A1, “TASL MIMICKING MOLECULES AND APPLICATIONS THEREOF” (CEMM - FORSCHUNGSZENTRUM FÜR MOLEKULARE MEDIZIN GMBH, priority 2022, published 2026).
